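Values below derive from 48-hour exposures of cells grown in 96-well plates, with endpoints linearly interpolated between the two concentrations bracketing the appropriate inhibition level. GI50: concentration for 50% inhibition of growth.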 Active and inactive are the calls of the source. Rule as the data show it: active = GI50 up to about 1.1 µM and inactive = higher.
Experiments:
Experiment in all cases: NCI-60 cell line screen, 48 h
[1] = system: A498
[2] = system: A549
[3] = system: CAKI-1
[4] = system: COLO 205
[5] = system: DU-145
[6] = system: HCC 2998
[7] = system: HL-60
[8] = system: HT-29
[9] = system: K562
[10] = system: KM-20L2
[11] = system: MCF7
[12] = system: OVCAR-3
[13] = system: OVCAR-5
[14] = system: PC-3
[15] = system: RPMI-8226
[16] = system: SF-295
[17] = system: SN12C
[18] = system: U-251
[19] = system: UACC-62
[20] = system: UO-31

Measured: GI50

CCCCCCCCCCCC(=O)OC[C@@H](C[As](=O)(O)O)OC(=O)CCCCCCCCCCC
inactive: [1] 11.9 µM | [2] 14.2 µM | [3] 11.1 µM | [4] 17 µM | [5] 18.1 µM | [6] 7.57 µM | [7] 2.95 µM | [8] 9.82 µM | [9] 5.75 µM | [10] 13.4 µM | [11] 2.8 µM | [12] 4.19 µM | [13] 16.3 µM | [14] 2.43 µM | [15] 6.87 µM | [16] 13.2 µM | [17] 7 µM | [18] 2.14 µM | [19] 2.52 µM | [20] 14.8 µM

CN(C=O)/C=C/c1cc(O)ccc1O
inactive: [1] > 68.2 µM | [2] > 78 µM | [3] 20.3 µM | [4] 21.3 µM | [5] 33.4 µM | [6] > 63 µM | [7] 14.2 µM | [8] 32.6 µM | [9] 24.9 µM | [10] > 46 µM | [12] 18.2 µM | [13] 40.6 µM | [15] 26.1 µM | [16] 32.5 µM | [17] 20.9 µM | [18] 39.6 µM | [19] 31.3 µM | [20] 32 µM

CC(=O)CC(=O)CCC(=O)Nc1cccc(C(F)(F)F)c1
inactive: [1] > 100 µM | [2] > 100 µM | [3] > 100 µM | [4] > 100 µM | [6] > 100 µM | [7] > 100 µM | [8] > 100 µM | [9] > 100 µM | [10] > 100 µM | [12] > 100 µM | [13] > 100 µM | [15] > 100 µM | [16] > 100 µM | [17] > 100 µM | [18] > 100 µM | [19] > 100 µM | [20] > 100 µM

N#CC(C#N)=C(N)/C(C#N)=C/c1cc(O)c(O)c(Br)c1
inactive: [1] > 100 µM | [2] 59.4 µM | [3] > 100 µM | [4] 52.2 µM | [5] 97.5 µM | [6] > 74 µM | [7] 28.1 µM | [8] 37.4 µM | [9] 46.6 µM | [10] 31.7 µM | [11] 49.4 µM | [12] 27.5 µM | [13] > 43.6 µM | [14] 92.5 µM | [15] > 100 µM | [16] > 82 µM | [17] > 69.3 µM | [18] 53 µM | [19] 39.4 µM | [20] 42.4 µM
